Key:
subcutaneous glioma PDX = assay: Subcutaneous PDX model of glioma (GBM1); type: in vivo, nude mice
Procedure: (§1) Fig. 2 The BBB permeability and tumor suppressor ability of GA-amide compared with TMZ. GA-amide (a) or TMZ (b) concentration in the tumor area and normal brain tissue following a single injection of GA-amide (10 mg/kg, i.v.) or TMZ (10 mg/kg, i.v.). The data are presented as the means ± SEMs (n = 3). c Western blot analysis of the expression of TrkA in mouse tumor tissues (T) and normal brain tissues (N), n = 4. d Western blot analysis of glycosylated TrkA expression in human normal brain tissues (N) and glioma tissues of different grades. e Time curve of GA-amide and TMZ treatment in a cell viability assay (MTS) in T2-4, GSC2 and T12-1 cells. f–h A PDX mouse model was established, and the mice were treated with vehicle (control, n = 9), 2 mg/kg GA-amide (n = 9), 2 mg/kg GAC (n = 9) or […] TMZ (n = 8) by i.p. injection daily for 10 days. A summary photograph is presented in (f), statistical results in (g) and the body weights of mice in (h); the mean ± SEMs are shown. n.s: P ≥ 0.05, *P < 0.05, **P < 0.01 and ***P < 0.001 compared with the control group by one-way ANOVA at each time point
Male nude mice aged 5–6 weeks were selected for establishment of the in vivo glioma mouse models. For the PDX models, the tumor sample will be soaked in HBSS solution on ice and transferred from the hospital to the laboratory. Patient-related information was shown in Supplementary Table 4). For the subcutaneous PDX models, the isometric fresh GBM tumor (GBM1) specimens were implanted s.c. into the flank of a nude mouse. Then, the mice were treated with GA-amide (2 mg/kg i.p.), gambogic acid (2 mg/kg i.p.), TMZ (65 mg/kg i.p., Selleck) or vehicle after the tumors grew to 100 mm^3. The mouse body weights were measured, and tumor volumes were calculated using the formula L × W^2/2. After treatment, the xenografts were harvested and photographed.

GSC2 and U87MG-SLC cells = assay: Combination of GA-amide with Trk inhibitors, cell viability; type: cell-based; settings: 48 hours
Procedure: Supplementary Fig. 5 TrkA was not the functional target for GA-amide to inhibit glioma. a Western blot analyses of the TrkA and p-TrkA expression in GSC2 and U87MG-SLC cells with GA-amide treatment for 4 hours. b Western blot analyses of the p-TrkA expression in GSC2 with GA-amide treatment for different times. c, d The combination effects of GA-amide with GW441756, a TrkA inhibitor, or with K252a, an inhibitor of Trk family in GSC2 (c) and U87MG-SLC (d) (48 hours, n = 3).

[1] = BBB permeability assay in U87MG-SLC intracranial xenograft mice; type: in vivo, mouse; settings: 10 mg/kg i.v., U87MG-SLC intracranial xenograft mice
Procedure: as §1
Mice bearing U87MG-SLC cell intracranial xenografts were injected with GA-amide (i.v.), and tissues from the brain tumor area and normal brain tissues were collected at different times after injection. […] The diagnostic product ions for GA-amide were detected at m/z 628.3/572.2.

F-actin = F-actin staining and G-actin/F-actin assay in T2-4 cells; type: cell-based; settings: 50 nM jas with 0.3 μM GA-amide
Procedure: F-actin isolation was performed according to the instructions of the G-actin/F-actin assay (Cytoskeleton, Inc.). Briefly, cells were lysed in LAS2 buffer (Cytoskeleton, Inc.). The lysates were centrifuged (5 min at 1000 rpm) to pellet undisrupted cells, and then 100 µl of the supernatant was ultracentrifuged at 37 °C (100,000 × g) for 1 h to separate F-actin from soluble G-actin. The F-actin pellet was solubilized by incubation in 100 μL of F-actin depolymerization buffer for 1 h. The soluble F-actin and G-actin fractions were subsequently analyzed by immunoblotting with a mouse monoclonal anti-actin antibody (Cytoskeleton, Inc.).
Representative images of three wells are shown, and the scale bar represents 500 μm. h The apoptosis assay was conducted on T2-4 cells treated with DMSO, GA-amide (0.3 μM), jas (50 nM), and jas (50 nM jas was pretreated for 12 hours) in combination with GA-amide (0.3 μM) for 4 hours. The data were presented as the mean ± SEM (n = 3) and analyzed using one-way ANOVA analysis. Statistical significance is denoted as *P <0.05, **P <0.01, and ***P <0.001.

[2] = 60 mg/kg i.p. daily for 10 days

CC(C)=CCC[C@]1(C)C=Cc2c(O)c3c(c(CC=C(C)C)c2O1)O[C@]12C(=C[C@@H]4C[C@H]1C(C)(C)O[C@@]2(C/C=C(/C)C(=O)O)C4=O)C3=O [GAC, gambogic acid, reference compound]
tumor volume versus control (subcutaneous glioma PDX; 2 mg/kg i.p. daily for 10 days): significantly decreased compared with those in the control group

Cn1cc(/C=C2\C(=O)Nc3cccnc32)c2ccccc21 [GW441756]
rescue of the inhibitory effect of GA-amide on GSCs (GSC2 and U87MG-SLC cells): neither the TrkA inhibitor GW441756 nor the Trk family inhibitor K252a[28] restored the inhibitory effect of GA-amide on GSCs

COC(=O)[C@@]1(O)C[C@H]2O[C@]1(C)n1c3ccccc3c3c4c(c5c6ccccc6n2c5c31)C(=O)NC4 [K252a]
rescue of the inhibitory effect of GA-amide on GSCs (GSC2 and U87MG-SLC cells): neither the TrkA inhibitor GW441756 nor the Trk family inhibitor K252a[28] restored the inhibitory effect of GA-amide on GSCs

Cn1nnc2c(C(N)=O)ncn2c1=O [TMZ, temozolomide, reference compound]
concentration in the tumor area versus the nontumor area [1]: no discernible difference in its distribution between these regions | body weight of mice (subcutaneous glioma PDX; [2]): significantly decreased | tumor volume versus control (subcutaneous glioma PDX; [2]): significantly decreased compared with those in the control group

C/C1=C\[C@H](C)C[C@H](C)OC(=O)C[C@H](c2ccc(O)cc2)NC(=O)[C@@H](Cc2c(Br)[nH]c3ccccc23)N(C)C(=O)[C@H](C)NC(=O)[C@@H](C)C1 [jasplakinolide, reference compound]
effect of F-actin stabilization on GA-amide induced F-actin depolymerization, invasion inhibition and apoptosis (F-actin): significantly reversed
